This passage reports RP-LC retention time results from the METLIN SMRT retention time set (Domingo-Almenara et al. 2019).

SMILES strings stand for the structures.

The data set in a line: gradient 5% acetonitrile 3 min, to 50% in 2 min, to 85% in 15 min, held 3 min, 100 µL/min. To be noted: column: Zorbax Extend-C18 2.1 x 50 mm; eluents: water / acetonitrile, 0.1% formic acid. The gist of the method: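 Pure standards were analyzed in mixtures of ~100 molecules using HPLC coupled to a quadrupole time-of-flight mass spectrometer, in both positive and negative ionization mode. Separation used a Zorbax Extend-C18 column (2.1 × 50 mm, 1.8 μm) at 100 μL/min, with water and acetonitrile each containing 0.1% formic acid. Dead and dwell volumes were 40 μL and 900 μL, and data were collected over 3 months. Retention time was read from computationally picked adduct peaks, each inspected manually.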
For the compound `COc1cc2c(cc1OC)C(C(=O)N1CCN(C)CC1)C(c1ccc(SC)cc1)N(C)C2=O` (centres undefined), the RP-LC retention time is 612 s.

Take `CCCn1cc(C(=O)Nc2ccc(F)cc2)c(S(=O)(=O)N2CCSCC2)n1`: the RP-LC retention time worked out at 1030 s.

Regarding `O=C(Cc1nc(-c2ccccn2)n[nH]1)Nc1cccc(Cl)c1`, the RP-LC retention time turned out to be 673 s.

The compound `CC(C)c1ccc2nc3ccc(C(=O)NCCN(C)C)cn3c(=O)c2c1` displayed an RP-LC retention time of 631 s.

As to `O=C(NCCc1cn2c(n1)SCC2)C(=O)Nc1ccc2c(c1)OCCO2`, the RP-LC retention time turned out to be 556 s.

`Cc1ccc(Cl)cc1NC(=O)Cn1cnc2c(sc3nc(-c4ccccc4)ccc32)c1=O` returned an RP-LC retention time of 1070 s.

Take `COCCOC1CN(C2CCN(Cc3cccc(C#N)c3)CC2)C12CCCCC2` (centres undefined): the RP-LC retention time is 557 s.

In the case of `COc1cccc(CNC(=O)C2CCCN2S(=O)(=O)c2cc3c(cc2C)NC(=O)C(C)O3)c1` (centres undefined), the RP-LC retention time turned out to be 788 s.

Consider `COc1ccc(S(=O)(=O)N2CCC(c3noc(-c4cnccn4)n3)C2)cc1` (centres undefined), for which the RP-LC retention time was determined as 784 s.

Turning to `Cc1ccc(Nc2nc(C)cc(N3CCN(C(=O)Nc4cccc(C)c4)CC3)n2)cc1`, the RP-LC retention time worked out at 717 s.

Regarding `COC[C@@H]1OCCN(S(=O)(=O)c2cn(C)cn2)[C@H]1c1ccccc1`, the RP-LC retention time amounted to 686 s.

`Cc1ccc(-c2cn(CC(=O)N3CCN(c4cccc(C)c4)CC3)c(=O)o2)cc1` came in with an RP-LC retention time of 1020 s.

In turn, `CCn1ccc(NC(=O)Nc2ccccc2C)n1` registered an RP-LC retention time of 801 s.

As for `CCN1CCCC1CNC(=O)C1c2ccccc2C(=O)N(CCOC)C1c1cccs1` (centres undefined), the RP-LC retention time came out at 556 s.

For the compound `O=C(CN1C(=O)CCCc2cc(S(=O)(=O)N3CCCC3)ccc21)N1CCc2ccccc2C1`, the RP-LC retention time is 838 s.

Take `Cc1ccc(C)c(S(=O)(=O)NCc2c(-c3ccccc3)nc3sc(C)nn23)c1`: the RP-LC retention time turned out to be 916 s.

`Cc1ccc2nc(-c3ccccc3F)c(Nc3ccc(Cl)cc3)n2c1` yielded an RP-LC retention time of 754 s.

Consider `Cc1ccc(-c2cc3n(n2)CCCN(C(=O)Cc2ccsc2)C3)cc1`, for which the RP-LC retention time amounted to 857 s.

In turn, `Cn1c(=O)c(-c2ccc(C(=O)NCc3ccc4c(c3)OCO4)cc2)nc2cccnc21` displayed an RP-LC retention time of 872 s.

Consider `N#Cc1cccc(C(=O)N2CCCC2c2nc(-c3cccc(C(F)(F)F)c3)no2)c1` (centres undefined), for which the RP-LC retention time was 1050 s.

For `CCCNC(=O)c1ccc(-c2ccc3c(c2)CCN3C(=O)CC)cc1`, the RP-LC retention time is 822 s.

`COc1ccccc1CC1C(=O)Nc2ccc(Br)cc21` (centres undefined) registered an RP-LC retention time of 976 s.

Turning to `COc1ccc(SCC(=O)Nc2nnc(-c3ccno3)o2)cc1`, the RP-LC retention time is 672 s.

Turning to `O=C(NC1CCN(c2ccccc2)C1=O)c1ccc(Br)cc1` (centres undefined), the RP-LC retention time came to 844 s.

For the compound `Cc1ccc(C(=O)NC2CCN(c3ncnc4c3CCC4)C2)s1` (centres undefined), the RP-LC retention time is 606 s.

The compound `CN(Cc1ccccc1)C(=O)C1CCN(S(=O)(=O)c2ccc3c(c2)sc(=O)n3C)CC1` yielded an RP-LC retention time of 852 s.

Compound `O=C(NC1(c2nc(-c3ccccc3)no2)CCCCC1)c1cccc(F)c1` had an RP-LC retention time of 1180 s.

`Cc1ccc2c(c1)C1CC(C)(O2)N(c2cccc(C(=O)NCc3ccccn3)c2)C(=O)N1` (centres undefined) yielded an RP-LC retention time of 646 s.

In turn, `Cc1cccc(Nc2c(-c3ccc4c(c3)OCO4)nc3cnccn23)c1C` returned an RP-LC retention time of 928 s.

Consider `O=C(C1=NN(c2ccc(F)cc2)c2ccc(F)cc2S1(=O)=O)N1CCOCC1`, for which the RP-LC retention time stood at 829 s.

`N#Cc1ccc(-c2cnc3[nH]cc(NC(=O)c4cccnc4)c3c2)cc1` displayed an RP-LC retention time of 738 s.

Consider `CCN1C(=O)COc2ccc(-c3csc(NC(=O)c4cccc(Br)c4)n3)cc21`, for which the RP-LC retention time worked out at 1100 s.

Turning to `COc1ccc(CCNC(=O)CSc2nnc(NC(=O)CC(C)C)s2)cc1OC`, the RP-LC retention time is 700 s.

As for `Cc1csc(-c2ccc(N3CCN(C(=O)COc4ccc(Cl)cc4)CC3)nc2)n1`, the RP-LC retention time is 925 s.

Compound `Cc1nc(-c2ccc3c(c2)n(CC(=O)NC2CCCC2)c(=O)n3C(C)C)no1` registered an RP-LC retention time of 780 s.

In the case of `CCOC(=O)c1c(S(=O)(=O)N2CCC(C(=O)Nc3cccc(Cl)c3)CC2)c(C)n(C)c1C`, the RP-LC retention time is 932 s.

Compound `Cc1cc(C)cc(NC(=O)Cn2nc(N3CCOCC3)c3ccccc3c2=O)c1` showed an RP-LC retention time of 840 s.

Take `CC1CCN(S(=O)(=O)c2ccc(-c3nnc(C(=O)NCCc4cccs4)o3)cc2)CC1`: the RP-LC retention time was 1060 s.

Turning to `O=S1(=O)CCC(Nc2ncnc3c2cnn3-c2ccc(Cl)c(Cl)c2)C1` (centres undefined), the RP-LC retention time is 903 s.

Consider `Cc1[nH]c(-c2ccc(Cl)cc2)cc1C(=O)N1CCC(C)CC1`, for which the RP-LC retention time was 1010 s.

In turn, `Cc1ccc(-c2noc(C3CCCN3C(=O)CNC(=O)C(c3ccccc3)c3ccccc3)n2)cc1` (centres undefined) showed an RP-LC retention time of 1100 s.

Compound `CCOC(=O)c1sc2ccccc2c1S(=O)(=O)N1CCN(c2ccccn2)CC1` returned an RP-LC retention time of 794 s.

`COc1ccc(NC(=O)N2CCc3cn(CC(C)C)c4cccc(c34)C2)cc1` showed an RP-LC retention time of 1030 s.

In turn, `Cn1cc(S(=O)(=O)NCc2cccs2)c(=O)n(C)c1=O` registered an RP-LC retention time of 635 s.

`CN(C)c1ccc(-c2nc3ccccc3s2)cc1` yielded an RP-LC retention time of 1130 s.

`CCCn1ncc(N2CCC(C(=O)NCCCOC(C)C)CC2)cc1=O` came in with an RP-LC retention time of 650 s.

Take `Cc1cc(NC(=O)CSc2nnc(CNC(=O)c3c(F)cccc3Cl)o2)no1`: the RP-LC retention time was determined as 657 s.

The compound `O=C(Nc1ccccc1)C1CCCN(c2nnc3ccc(Cl)cn23)C1` (centres undefined) displayed an RP-LC retention time of 753 s.

The compound `Cc1cccc(CN2CCCn3nc(C(=O)NCc4ccco4)cc3C2=O)c1` registered an RP-LC retention time of 810 s.

For `CCn1cc(-c2ccc(F)cc2)cc1C(=O)NC1CC1`, the RP-LC retention time worked out at 917 s.

As for `COc1ccc(C(=O)N2CC(F)(F)C[C@H]2COc2ccc3c(c2)CCC3)cn1`, the RP-LC retention time is 1150 s.

As to `Cn1c(=O)c2cc(C(=O)Nc3ccccc3)cnc2n(-c2ccc(F)cc2)c1=O`, the RP-LC retention time was found to be 885 s.

Turning to `CC(C)c1nnc(-c2ccc(=O)n(CC(=O)N3CCC4(CC3)OCCO4)c2)o1`, the RP-LC retention time was 609 s.

The compound `Cc1ccc(C(=O)NCc2ccc3c(c2)ncn3C(C)C)s1` yielded an RP-LC retention time of 614 s.

`CCn1ccc2ccc(CCC(=O)N3CCN(c4ccccc4)CC3)cc21` registered an RP-LC retention time of 1030 s.

`COc1cccc(Cn2c(C(=O)N3CCC(C(=O)NC4CCCCCC4)CC3)cc3ccsc32)c1` registered an RP-LC retention time of 1070 s.

In turn, `COc1ccc(CNC(=O)C2CC(=O)N(c3n[nH]c4cccc(F)c34)C2)cc1OC` (centres undefined) gave an RP-LC retention time of 661 s.

`Cn1c(=O)n(CCN2CCCCC2)c(=O)c2c1nc1n2CCCN1C1CCCCC1` had an RP-LC retention time of 681 s.

As to `Cc1cc(C)c(S(=O)(=O)N2CC(F)(F)C[C@H]2COc2cccnc2)cc1C`, the RP-LC retention time worked out at 817 s.

Compound `COc1cc(-c2nc3ccccn3c2Nc2ccccc2C)ccc1O` yielded an RP-LC retention time of 650 s.

As to `COc1ccc(Br)cc1S(=O)(=O)NC(=O)/C=C/c1ccccc1Cc1ccc2ccccc2c1`, the RP-LC retention time is 1280 s.

As for `Cc1nc2c(sc3nc(-c4ccccc4)ccc32)c(=O)n1CC(=O)NCc1ccc2c(c1)OCO2`, the RP-LC retention time is 985 s.

Regarding `O=C(O)CNC(=O)c1c(O)c2ccccc2n(Cc2ccccc2)c1=O`, the RP-LC retention time is 989 s.

As to `COc1cc(OC)cc(C(=O)N2CCC3(C2)C(=O)Nc2ccccc23)c1` (centres undefined), the RP-LC retention time came to 707 s.

As to `CC(C)NC(=O)c1nsc(C(=O)N2CCN(c3ncccn3)CC2)c1N`, the RP-LC retention time was 764 s.

With `O=C(CCc1nnc(C(=O)Nc2ccccc2)s1)NCCc1c[nH]c2ccccc12`, the RP-LC retention time was determined as 843 s.

As for `CCOc1ccccc1N1CCN(C(=O)CSc2nccnc2Oc2ccccc2C)CC1`, the RP-LC retention time was determined as 1120 s.

Regarding `O=C(NCCCN1CCCCC1)C1CN(S(=O)(=O)c2cccnc2)CC12CCCCC2` (centres undefined), the RP-LC retention time turned out to be 573 s.

For `CCn1c(CCNC(=O)c2cc(C)cc(C)c2)nc2cccnc21`, the RP-LC retention time is 666 s.

Take `N#Cc1cccc(C(=O)N2CCOc3ccccc32)c1`: the RP-LC retention time was 843 s.

In the case of `COc1ccc(N2CCN(c3cc(SCC(=O)Nc4cccc(Cl)c4)ncn3)CC2)cc1`, the RP-LC retention time stood at 1030 s.

`Cc1noc([C@@H]2CN(S(=O)(=O)c3ccc(Cl)s3)C[C@H]2C(N)=O)n1`: the RP-LC retention time worked out at 732 s.

`CC(C)NC(=O)Cn1cnc2c(sc3nc(-c4ccccc4)ccc32)c1=O` yielded an RP-LC retention time of 817 s.

`CCC(c1cccs1)N1C(=O)[C@H]2CN(S(=O)(=O)c3ccc(F)cc3)C[C@H]2C1=O` (some centres undefined) showed an RP-LC retention time of 979 s.

`COc1ccc(NC(=O)C2CCCN2S(=O)(=O)c2ccc3c(c2)CCCC(=O)N3)cc1Cl` (centres undefined) had an RP-LC retention time of 787 s.

`Cc1ccc(C)c(N2CCN(c3cc(C(=O)O)c4cc(NS(C)(=O)=O)ccc4n3)CC2)c1` registered an RP-LC retention time of 1110 s.

As to `Cc1cc(=O)n(CC(=O)Nc2ccccc2F)c(N2CCOCC2)n1`, the RP-LC retention time worked out at 643 s.

Compound `Cc1[nH]c2ccccc2c1C(=O)C(=O)NC(C)c1ccccc1` (centres undefined) registered an RP-LC retention time of 794 s.

On to `Cn1cc2c3c(cccc31)CN(C(=O)c1cc(F)ccc1Cl)CC2`, for which the RP-LC retention time is 938 s.
